From patent US20050267020A1, “Polypeptides derived from inducible hsp70 and pharmaceutical compositions containing the same” (priority 2001, published 2005)

Key:
HLA-A*0201 = biological target: T1, HLA-A*0201 (Homo sapiens, UniProt P04439, D140Y/D185E/D98H/E176V/E277Q/G131W/G231S/I119V/I121R/I166T/I218V/L300P/L318F/N151K/N90K/P208A/P217A/Q86G/Q94H/R138H/R169H/T345S); assay: Measurement of peptide relative affinity to HLA-A*0201 on T2 cells; format: binding; conditions: Relative Affinity determination
T1 construct: Tap−/− cells expressing the studied HLA-class I molecule; endogenous in cells; host or cells: T2 cells (Tap-/-, HLA-A*0201)
Method: Measurement of Peptide Relative Affinity to HLA class I. Tap−/− cells expressing the studied HLA-class I molecule (3×10^5 cells/mL) were incubated with various concentrations of peptides ranging from 100 μM to 0.1 μM in serum-free RPMI 1640 medium supplemented with 100 ng/ml of human β-2m at 37° C. for 16 hours. Cells were then washed twice and stained with the specific anti-class I mAb followed by FITC conjugated goat anti mouse Ig mAb to quantify the expression of HLA-A*0201. For each peptide concentration, the HLA-specific staining was calculated as the % of the staining obtained with 100 μM of the reference peptide. The relative affinity (RA) is determined as: RA=(Concentration of each peptide that induces 20% of HLA expression/Concentration of the reference peptide that induces 20% of HLA expression). The lower the RA-value, the stronger is the peptide binding to HLA. The mean RA value for each peptide is determined from at least three independent experiments. […]
The affinity of each peptide was assayed experimentally by determination of the Relative Affinity: the necessary peptide dose to stabilise a reference quantity of HLA-A*0201 molecules at the surface of T2 cells; and the stability of each peptide was assayed by determination of the half-life of the peptide/HLA-A*0201 molecule complex (DC50: dissociation complex 50).

[1] = tested on: murine CTL lines mCTL134, mCTL380, mCTL391, mCTL393; assay: Murine CTL avidity for peptide, 51Cr release cytotoxic assay; format: cell-based, HHD mice; conditions: peptide concentration, effector:target ratio 40:1, each CTL line with its respective Hsp70 peptide, read-out: avidity (50% of maximal lysis)
Method: The four graphs indicate the cell lysis by CTL lines obtained after stimulation with the following peptides, respectively: HSP134 (line mCTL134), HSP380 (line mCTL380), HSP391 (line mCTL391) and HSP393 (line mCTL393). The avidity of the CTLs for their cellular target is determined with a ^51Cr release assay with an effector:target ratio of 40:1. The percentage of lysis of target cells is expressed on the Y axis, as a function of peptide concentration in the medium, which is represented on the X axis. In each graph, the black curve with diamond-shaped points represent cell lysis in presence of HSP peptides, whereas the grey curve with square points represent cell lysis in presence of cognate HSC peptides.
For measuring the avidity of mCTL134 for cells presenting HSP134, the peptide concentration ranges from […]. For mCTL380, mCTL391 and mCTL393, the respective peptide concentration ranges from 1 pM to 1 μM. The different points on each curve correspond, from left to right, to peptide concentrations of 1 pM, 10 pM, 100 pM, 1 nM, 10 nM, 100 nM and 1 μM.
Generation of CTL in HLA-transgenic mice. […]
Cytotoxic assay. […] After incubation, 100 μL of supernatant was collected and radioactivity was measured in a γ-counter. Percentage of specific lysis was determined as: Lysis=(Experimental Release−Spontaneous Release)/(Maximal Release−Spontaneous Release)×100. […]

Row | Sequence | affinity for HLA-A*0201 (in words) (HLA-A*0201) | EC50 [1] [nM]
1 | YLGYPVTNAV [HSP 134(10)] | strong affinity | 
2 | LMGDKSENV [HSP 380] |  | ~10
